Laboratory results taken from patent publication US9255078B2, “Micheliolide derivatives, medicinal composition, producing method and usage thereof” (ACCENDATECH, priority 2010, dated 2016).
Where a name gives a salt, the structure may show the parent alone. Read-outs that look alike come from different tables or passages of the source. Values belong to the molecule of their own block, whether it stands above or below them.

Tests used:
Assay type in all cases: cell-based
Conditions in all cases: incubated 18 hours, read-out: inhibitory activity against different cancer cells (IC50)
HL-60 = assay: MTT assay, HL-60 acute leukemia cell lines
Experimental: (§1) A variety of cancer cells are suspended to 2×10^5/mL, and then added into 24-hole Round-bottomed tissue culture plate. After that micheliolide and its derivatives are added, herein a test with one density occupies 5 holes. The resulting suspension are incubated (under 37° C., 5% CO2) for 18 hours to allow the compounds to take effect. A absorbance (A) value is measured by using the method of MTT assay and an enzyme-linked detector under 570 nm wavelength, and then the inhibitory activity of the compounds is concluded.
(§2) In Table 1, HL-60, K562, MCF-7, CNE-1, CNE-2, SW620, A549, HepG2, Ec9706, SGC7901, SW1116, A498, ASPC-1, HT-29, HeLa, GL15, B16F1, T24, SKOV3, SW579, PC-3, represents acute leukemia cell lines, Chronic leukemia cell lines, Breast cancer cell lines, High differentiation nasopharyngeal carcinoma cell line, Poorly differentiated nasopharyngeal carcinoma cell lines, Colorectal cancer cell line, Lung cancer cell lines, Hepatocellular carcinoma cell lines, Esophageal cancer cell line, Gastric cancer cell line, Colon cancer cell line, Renal cell carcinoma cell line, Pancreatic cancer cell line, Colon cancer cell lines, uterine cervical cancer cell lines, Horny man neuroblastoma cell lines, Melanoma cell line, human bladder cancer cell line, ovarian cancer cell lines, thyroid cancer cells, prostate cancer cell lines, respectively.

K562 = assay: MTT assay, K562 chronic leukemia cell lines
Experimental: as §1, §2

MCF-7 = assay: MTT assay, MCF-7 breast cancer cell lines
Experimental: as §1, §2

CNE-1 = assay: MTT assay, CNE-1 high differentiation nasopharyngeal carcinoma cell line
Experimental: as §1, §2

CNE-2 = assay: MTT assay, CNE-2 poorly differentiated nasopharyngeal carcinoma cell lines
Experimental: as §1, §2

SW620 = assay: MTT assay, SW620 colorectal cancer cell line
Experimental: as §1, §2

A549 = assay: MTT assay, A549 lung cancer cell lines
Experimental: as §1, §2

HepG-2 = assay: MTT assay, HepG-2 hepatocellular carcinoma cell lines
Experimental: as §1, §2

Ec9706 = assay: MTT assay, Ec9706 esophageal cancer cell line
Experimental: as §1, §2

SGC7901 = assay: MTT assay, SGC7901 gastric cancer cell line
Experimental: as §1, §2

SW1116 = assay: MTT assay, SW1116 colon cancer cell line
Experimental: as §1, §2

A498 = assay: MTT assay, A498 renal cell carcinoma cell line
Experimental: as §1, §2

ASPC-1 = assay: MTT assay, ASPC-1 pancreatic cancer cell line
Experimental: as §1, §2

HT-29 = assay: MTT assay, HT-29 colon cancer cell lines
Experimental: as §1, §2

HeLa = assay: MTT assay, HeLa uterine cervical cancer cell lines
Experimental: as §1, §2

GL15 = assay: MTT assay, GL15 neuroblastoma cell lines
Experimental: as §1, §2

B16F1 = assay: MTT assay, B16F1 melanoma cell line
Experimental: as §1, §2

T24 = assay: MTT assay, T24 human bladder cancer cell line
Experimental: as §1, §2

SKOV3 = assay: MTT assay, SKOV3 ovarian cancer cell lines
Experimental: as §1, §2

SW579 = assay: MTT assay, SW579 thyroid cancer cells
Experimental: as §1, §2

PC-3 = assay: MTT assay, PC-3 prostate cancer cell lines
Experimental: as §1, §2

IC50 (HL-60; Homo sapiens, HL-60, 18 h): 4.5 nM | IC50 (K562; Homo sapiens, K562, 18 h): 6.7 nM | IC50 (MCF-7; Homo sapiens, MCF7, 18 h): 3.4 nM | IC50 (CNE-1; 18 h): 5.9 nM | IC50 (CNE-2; Homo sapiens, CNE-2, 18 h): 12.4 nM | IC50 (SW620; Homo sapiens, SW-620, 18 h): 5.6 nM | IC50 (A549; Homo sapiens, A549, 18 h): 7.7 nM | IC50 (HepG-2; Homo sapiens, HepG2, 18 h): 15.4 nM | IC50 (Ec9706; Homo sapiens, EC9706, 18 h): 7.6 nM | IC50 (SGC7901; Homo sapiens, SGC-7901, 18 h): 14.7 nM | IC50 (SW1116; Homo sapiens, SW 1116, 18 h): 21.5 nM | IC50 (A498; Homo sapiens, A498, 18 h): 5.3 nM | IC50 (ASPC-1; Homo sapiens, ASPC1, 18 h): 15.1 nM | IC50 (HT-29; Homo sapiens, HT-29, 18 h): 9.8 nM | IC50 (HeLa; Homo sapiens, 18 h): 17.3 nM | IC50 (GL15; Neuroblastoma cell, 18 h): 14.3 nM | IC50 (B16F1; Mus musculus, B16-F1, 18 h): 13.2 nM | IC50 (T24; Homo sapiens, T-24, 18 h): 13.6 nM | IC50 (SKOV3; Homo sapiens, SK-OV-3, 18 h): 9.4 nM | IC50 (SW579; SW579, 18 h): 22.5 nM | IC50 (PC-3; Homo sapiens, PC-3, 18 h): 11.4 nM
Structure (SMILES): C=C1C(=O)O[C@H]2[C@H]1CCC(C)=C1CC[C@@](C)(OC(=O)CC)[C@@H]12 [Compound III, 4-propionylmicheliolide]

IC50 (HL-60; Homo sapiens, HL-60, 18 h): 5.8 nM | IC50 (K562; Homo sapiens, K562, 18 h): 9.7 nM | IC50 (MCF-7; Homo sapiens, MCF7, 18 h): 8.9 nM | IC50 (CNE-1; 18 h): 6.7 nM | IC50 (CNE-2; Homo sapiens, CNE-2, 18 h): 5.6 nM | IC50 (SW620; Homo sapiens, SW-620, 18 h): 3.8 nM | IC50 (A549; Homo sapiens, A549, 18 h): 5.7 nM | IC50 (HepG-2; Homo sapiens, HepG2, 18 h): 7.4 nM | IC50 (Ec9706; Homo sapiens, EC9706, 18 h): 6.6 nM | IC50 (SGC7901; Homo sapiens, SGC-7901, 18 h): 13.4 nM | IC50 (SW1116; Homo sapiens, SW 1116, 18 h): 11.7 nM | IC50 (A498; Homo sapiens, A498, 18 h): 4.3 nM | IC50 (ASPC-1; Homo sapiens, ASPC1, 18 h): 26.4 nM | IC50 (HT-29; Homo sapiens, HT-29, 18 h): 9.8 nM | IC50 (HeLa; Homo sapiens, 18 h): 9.7 nM | IC50 (GL15; Neuroblastoma cell, 18 h): 21.5 nM | IC50 (B16F1; Mus musculus, B16-F1, 18 h): 5.2 nM | IC50 (T24; Homo sapiens, T-24, 18 h): 7.9 nM | IC50 (SKOV3; Homo sapiens, SK-OV-3, 18 h): 10.4 nM | IC50 (SW579; SW579, 18 h): 12.4 nM | IC50 (PC-3; Homo sapiens, PC-3, 18 h): 17.2 nM
Structure (SMILES): C=C1C(=O)O[C@H]2[C@H]1CC[C@]1(C)O[C@@]13CC[C@@](C)(O)[C@H]23 [Compound IV, 1,10-Epoxymicheliolide]

IC50 (HL-60): 2.4 nM | IC50 (K562): 4.2 nM | IC50 (MCF-7): 4.6 nM | IC50 (CNE-1): 11.2 nM | IC50 (CNE-2; Homo sapiens, CNE-2, 18 h): 16.5 nM | IC50 (SW620): 5.8 nM | IC50 (A549): 7.2 nM | IC50 (HepG-2): 4.5 nM | IC50 (Ec9706; Homo sapiens, EC9706, 18 h): 9.2 nM | IC50 (SGC7901; Homo sapiens, SGC-7901, 18 h): 14.6 nM | IC50 (SW1116): 11.5 nM | IC50 (A498; Homo sapiens, A498, 18 h): 12.4 nM | IC50 (ASPC-1): 3.9 nM | IC50 (HT-29): 4.8 nM | IC50 (HeLa): 9.4 nM | IC50 (GL15): 12.6 nM | IC50 (B16F1): 3.4 nM | IC50 (T24; Homo sapiens, T-24, 18 h): 14.2 nM | IC50 (SKOV3): 5.9 nM | IC50 (SW579; SW579, 18 h): 17.3 nM | IC50 (PC-3): 8.7 nM
Structure (SMILES): CC1=C2CC[C@@](C)(O)[C@@H]2[C@H]2OC(=O)[C@@H](CN(C)C)[C@@H]2CC1 [Compound II, 11βH,13-Dihydro, 13-dimethylaminomicheliolide]

IC50 (HL-60; hydrochloride): 11.5 nM | IC50 (K562; hydrochloride): 21.4 nM | IC50 (MCF-7; hydrochloride): 26.8 nM | IC50 (CNE-1; hydrochloride): 22.5 nM | IC50 (CNE-2; hydrochloride): 16.9 nM | IC50 (SW620; hydrochloride): 13.5 nM | IC50 (A549; hydrochloride): 18.1 nM | IC50 (HepG-2; hydrochloride): 27.9 nM | IC50 (Ec9706; hydrochloride): 15.7 nM | IC50 (SGC7901; hydrochloride): 24.9 nM | IC50 (SW1116; hydrochloride): 31.2 nM | IC50 (A498; hydrochloride): 16.3 nM | IC50 (ASPC-1; hydrochloride): 33.6 nM | IC50 (HT-29; hydrochloride): 19.2 nM | IC50 (HeLa; hydrochloride): 33.4 nM | IC50 (GL15; hydrochloride): 25.8 nM | IC50 (B16F1; hydrochloride): 18.6 nM | IC50 (T24; hydrochloride): 22.5 nM | IC50 (SKOV3; hydrochloride): 15.4 nM | IC50 (SW579; hydrochloride): 32.6 nM | IC50 (PC-3; hydrochloride): 23.5 nM
Structure (SMILES): CC1=C2CC[C@@](C)(O)[C@@H]2[C@H]2OC(=O)[C@@H](CN(C)C)[C@@H]2CC1 [Compound V, 11βH,13-Dihydro, 13-dimethylaminomicheliolide hydrochloride]
